Test results from patent US7105550B2, “2,4-disubstituted thiazolyl derivatives” (priority 2000, dated 2006).

Experiments:
IL-12 production = assay: In vitro inhibition of IL-12 production in human blood; format: cell-based; conditions: human whole blood, lipopolysaccharide 100 ng/ml, 24 hours
Protocol: (§1) Human Whole Blood Stimulation
(§2) Peripheral blood from healthy male donors was drawn into heparinized syringes (12.5 U heparin/ml). Blood samples were three-fold diluted in RMPI 1640 medium (Life Technologies, Belgium) supplemented with 2 mM L-glutamine, 100 U/ml penicillin and 100 μg/ml streptomycin, and 300 μl fractions were distributed in 24-well multidisc plates (Nunc, Roskilde, Denmark). Blood samples were preincubated (60 minutes at 37° C.) in a humidified 6% CO2-atmosphere with 100 μl of drug solvent (final concentration 0.02% dimethylsulfoxide in RPMI 1640) or with 100 μl of an appropriate dose of test compound before being stimulated by the addition of 100 μl of lipopolysaccharide at a final concentration of 100 ng/ml. After 24 hours, cell-free supernatant fluids were collected by centrifugation and stored at −20° C. until tested for the presence of IL-12.
(§3) Cytokine protein concentrations were determined by sandwich ELISA as described in Van Wauwe et al. (1996, Inflamm Res, 45, 357–363). Murine monoclonals used as capture antibodies to human cytokines were obtained from R&D Systems (Abingdon, United Kingdom) and code named MAB210 and MAB611 for TNF-α and IL-12 respectively. Butinylated goat polyclonal antibodies used to detect human cytokines were from R&D Systems (BAF210, BAF219). Cytokine levels were calculated from standard curves using recombinant cytokines supplied by R&D Systems.

TNF-α production = assay: In vitro inhibition of TNF-α production in human blood; format: cell-based; conditions: human whole blood, lipopolysaccharide stimulation
Protocol: as §1
as §2, with “with 100 A1 of drug” for “with 100 μl of drug”, “ng/ml. After 6 hours, cell-free” for “ng/ml. After 24 hours, cell-free”, “presence of TNF-α.” for “presence of IL-12.”
as §3

SMILES | % inhib. IL-12 (p40) (IL-12 production; test dose 1 × 10^−6 M) [%] | % inhib. IL-12 (p40) (IL-12 production; test dose 1 × 10^−7 M) [%] | % inhib. TNF-α (TNF-α production; test dose 1 × 10^−6 M) [%] | % inhib. TNF-α (TNF-α production; test dose 1 × 10^−7 M) [%]
Br.Cc1ccc(Nc2nc(-c3cnc4ncccn34)cs2)cc1Cl [compound 286] | 60 | 63 | 50 | 48
Br.COc1ccc(Nc2nc(-c3cnc4ccccn34)cs2)cc1 [Compound 74] | 70 | 67 | 56 | 48
Br.FC(F)(F)c1cccc(Nc2nc(-c3cccnc3)cs2)c1 [compound 101] | 62 | 65 | 54 | 53
COc1ccc(Nc2nc(-c3cnc4ccccn34)cs2)cn1 [compound 573] | 67 | 61 | 53 | 45
Cl.c1ccn2c(-c3csc(Nc4ccc5ncsc5c4)n3)cnc2c1 [compound 587] | 79 | 75 | 56 | 56
Cl.Clc1cccc(Nc2nc(-c3cnc4ccccn34)cs2)c1Cl.O [Compound 45] | 64 | 65 | 49 | 48
Cl.Clc1cccc(Nc2nc(-c3ncc4ccccn34)cs2)c1Cl [compound 410] | 53 | 58 | 39 | 43
Cl.Clc1cccc(Nc2nc(-c3cnc4sccn34)cs2)c1Cl [compound 551] | 71 | 71 | 44 | 40
Br.FC(F)(F)c1cccc(Nc2nc(-c3cnc4ccccn34)cs2)c1 [Compound 81] | 65 | 67 | 51 | 47
Cl.Cl.Clc1cccc(Nc2nc(-c3c[nH]c4ncccc34)cs2)c1Cl [Compound 166] | 62 | 55 | 48 | 37
Brc1ccc(Nc2nc(-c3cnc4ccccn34)cs2)cc1.Cl [Compound 509] | 64 | 68 | 46 | 54
FC(F)(F)c1cccc(Nc2nc(-c3cncnc3)cs2)c1 [compound 517] | 74 | 68 | 61 | 57
Cl.c1ccn2c(-c3csc(Nc4ccc5c(c4)CCO5)n3)cnc2c1 [compound 579] | 72 | 75 | 49 | 50
Cc1cccc(Nc2nc(-c3cnc4ccccn34)cs2)c1.Cl [Compound 31] | 66 | 68 | 55 | 49
Cl.FC(F)(F)c1cccc(Nc2nc(-c3cnc4sccn34)cs2)c1 [compound 549] | 74 | 71 | 50 | 47
Cc1ccc(Nc2nc(-c3cnc4ccccn34)cs2)cn1.Cl.Cl.O.O [compound 577] | 77 | 71 | 50 | 49
Brc1cccc(Nc2nc(-c3cnc4ccccn34)cs2)c1 [Compound 466] | 95 | 86 | 57 | 49
Cl.FC(F)(F)c1cccc(Nc2nc(-c3ccoc3)cs2)c1 [compound 518] | 62 | 59 | 38 | 44
Cl.FC(F)(F)c1cncc(Nc2nc(-c3cnc4ccccn34)cs2)c1 [compound 584] | 75 | 68 | 53 | 49
Br.Cc1cccc(Nc2nc(-c3cnn4ccccc34)cs2)c1 [compound 119] | 62 | 62 | 49 | 49
Br.Cc1ncc(-c2csc(Nc3ccc(Cl)nc3)n2)n1C [Compound 527] | 61 | 66 | 37 | 43
Cl.Fc1cccc(-c2csc(Nc3cccc(C(F)(F)F)c3)n2)c1 [Compound 643] | 75 | 72 | 64 | 59
Cc1ccc(Nc2nc(-c3cnc4ccccn34)cs2)cc1.Cl [Compound 39] | 64 | 71 | 53 | 59
Cc1ccc(Nc2nc(-c3cnc4ccccn34)cs2)cc1Cl.Cl [Compound 476] | 75 | 71 | 58 | 53
Br.Cc1cccc(Nc2nc(-c3cnc4cnccn34)cs2)c1.O [compound 115] | 75 | 67 | 58 | 53
Cl.c1ccc(Nc2nc(-c3c[nH]c4ccccc34)cs2)cc1 [Compound 9] | 49 | 53 | 37 | 39
Br.FC(F)(F)c1cccc(Nc2nc(-c3cnc4ccccc4c3)cs2)c1.O [compound 100] | 53 | 51 | 43 | 41
